{
  "source": "patent US20190086391A1",
  "about": "“METHOD AND SYSTEM FOR CONTINUOUS BIOSENSING” (Yissum Research Development Company of the Hebrew …, priority 2016, published 2019)",
  "assay_type_in_all_cases": "cell-based, human",
  "key": {"[1]": {"assay": "Real-time oxygen uptake in perfused microwell bioreactor", "details": "human", "method": "(§1) PDMS microwell inserts were sterilized with 70% EtOH and 30 min exposure to UV light prior to cell seeding. Cells were trypsinized, counted and centrifuged at 300×g for 5 min at 4° C. The pellet was then mixed with […] CPOx-50-RuP oxygen-sensing beads (Colibri Photonics, Germany) and resuspended in 100 μl of ice-cold solution of collagen type I (BD Biosciences, USA) for a final seeding density of 4×10^6 cells/ml. The PDMS microwell insert was placed on ice and coated with ice-cold collagen solution for 5 min to remove air bubbles. Then 100 μl of collagen type I suspension containing cells and oxygen-sensing beads was layered on top the wells and incubated for 10 min on ice. The low temperature prevented premature collagen polymerization and the induction of cellular stress response pathways. Afterwards, excess cell and microbead suspension was gently wiped off the microwell insert using a sterile glass coverslip leading to a concentration of 100,000 cells and 20 oxygen-sensing beads per well. Variance in cell density between individual wells and between bioreactors was less than 10% measured by DNA content. The inoculated microwell insert was then incubated for 5 min at 37° C. to polymerize the collagen. Following polymerization, the insert was immersed in 5 ml of cell culture medium and incubated for 20 min at 37° C. prior to being sealed in the bioreactor housing. Bioreactors were then placed in a climate control chamber (Evotec, Germany) on an IX81 fluorescence microscope (Olympus, Japan). Bioreactors were continuously perfused with cell culture medium noted above supplemented with 10 mM HEPES and 1% DMSO at a flow rate of 2 μl/min. The automated and motorized microscope stage was equipped with a holder for three microreactors, allowing three experiments to run simultaneously.\n(§2) Troglitazone (T2573), and rotenone (R8875) were purchased from Sigma-Aldrich (Schnelldorf, Germany) and diluted from H2O or DMSO stock concentration 1:1000 into HepG2/C3A culture medium. Exposure onset was calculated to within ±1 min based on volumetric flow rate, considering the length of the tubing and bioreactor volume.\n(§3) Real-time oxygen measurements were performed optically using lifetime-based luminescencequenching as previously described (11). […] Excited by a sinusoidal amplitude-modulated 532 nm LED source, the microbeads emit a sinusoidal amplitudemodulated light at 605 nm that is shifted in phase due to oxygen quenching (FIG. 2D). To overcome the superposition of in-phase background fluorescence that alters the phase of the detected signal, a 53.5 kHz and 31.3 kHz two-frequency phase modulation was used. This allowed screening out background interference (26-28). Measurements were carried out by averaging 5 consecutive 3 second exposures, followed by 17 seconds intervals, for a total of 100 seconds. Measurements were taken every 15 minutes for as long as 28 days with no phototoxicity, signal drift, or relevant loss of signal intensity. The apparatus consists of the OPAL package (Colibri Photonics, Germany) that is comprised of a control module, 532 nm LED, and a photomultiplier (PMT) detector mounted on the ocular of an […] Olympus microscope (Olympus, Japan). A filter cube with 531/40 (Ex), 607/70 (Em) was inserted in the optical light path during measurements."}, "HepG2/C3A cells [2]": {"test_system": "HepG2/C3A cells", "assay": "Real-time oxygen uptake in perfused microwell bioreactor", "method": "as §1, §2, §3"}, "HepG2/C3A cells [3]": {"test_system": "HepG2/C3A cells", "assay": "Real-time amperometric glucose and lactate measurements in bioreactor outflow", "details": "for total glucose uptake rate: 50 μM treated cells", "method": "Amperometric glucose and lactate sensors were purchased from BioSensor Technology (Berlin, Germany) and embedded in a CNC-fabricated PMMA flow-chamber with an inner volume of 26 μl. The sensors are based on the enzymatic reactions of glucose oxidase, with a linear range of 0.5 mM to 30 mM, and lactate oxidase, with a linear range of 0.5 mM to 20 mM. Both sensors produce H2O2 in amounts proportional to the measured metabolite, which is detected with platinum electrodes under polarized condition. The microfluidic controller (13) was programmed to open a microfluidic valve every hour, allowing a 40 μl medium sample to flow through the switchboard and into the sensors unit. Amperometric measurement lasted 200 seconds and was followed by automated perfusion of PBS washing solution, CAL 4+M calibration buffer (Eschweiler, Germany), and 4 seconds of air bubble acting as a diffusion barrier between samples. Reading was carried out on EmStat3 OEM embedded potentiostat (PalmSens, Netherlands) connected to the central computer.\nGlucose uptake, oxygen uptake and lactate production rates were measured by calculating the change in metabolite concentration between the bioreactor in- and outflow, as function of perfusion rate and cell number as described above. Metabolic rates were calculated assuming negligible contribution to oxygen uptake by fatty acid oxidation and enzymatic activity. Low level of lipids in the culture medium ensured that fatty acid uptake was 50-fold lower than glucose while glutamine contribution to the Krebs cycle was minor (results)."}, "HepG2/C3A cells [4]": {"test_system": "HepG2/C3A cells", "assay": "Seahorse glutamine oxidation assay", "details": "50 μM, static culture", "method": "HepG2/C3A cells were plated in gelatin-coated XFp cell culture miniplates and cultured for 24 hours. Subsequently, cultures were treated with medium containing 50 μM troglitazone for 6 hours, 50 μM rotenone for 3 hours, or vehicle control prior to initiation of assay. Glutamine oxidation assay was conducted per manufacturer instructions. Briefly, cells were incubated in unbuffered XF Base Medium supplemented with 2 mM Glutamine, 1 mM sodium pyruvate, and 10 mM glucose (pH 7.4) for 1 hour at 37° C. in a non-CO2 incubator. Glutamine oxidation was profiled by successive injections of 3 μM BPTES, an allosteric inhibitor of glutaminase (GLS1), and a mixture of 4 μM etomoxir, a carnitine palmitoyl-transferase 1A (CPT1A) inhibitor and 2 μM UK5099 a mitochondrial pyruvate carrier inhibitor, blocking fatty acid oxidation and […], respectively. The decrease in baseline OCR due to BPTES treatment was defined as the rate of glutaminolysis. Data are presented normalized to 10^6 cells as determined by Hoechst DNA content assay."}, "HepG2/C3A cells [5]": {"test_system": "HepG2/C3A cells", "assay": "JC-1 mitochondrial membrane potential staining", "details": "50 μM", "method": "JC-1 cell permeable dye was purchased from Life Technologies (New York, N.Y.). HepG2/C3A cells were incubated with 50 μM of troglitazone or rotenone for varying durations. To evaluate mitochondrial membrane potential at each time point, cells were incubated with 5 μM JC-1 dye for 30 min, washed with PBS and imaged by confocal microscopy on a LSM700 (Zeiss, Germany). […] Consequently, mitochondrial depolarization is quantified by dividing red over green fluorescence intensity."}, "[6]": {"details": "50 μM, after 6 hours of exposure"}, "[7]": {"details": "50 μM, within the first 2 hours"}},
  "data": [
    {"smiles": "C=C(C)[C@H]1Cc2c(ccc3c2O[C@@H]2COc4cc(OC)c(OC)cc4[C@@H]2C3=O)O1", "note": "[rotenone]", "values": [
      {"measurement": "CC50 at 12 h", "setting": "[1]; after 12 hours, read-out: TC50 (dose dependence of oxygen uptake)", "result": 12.5, "unit": "µM"},
      {"measurement": "oxygen uptake, % of normal respiration", "setting": "HepG2/C3A cells [2]; 1 μM, 12 hours exposure", "result": 35, "unit": "%"},
      {"measurement": "reduction of oxygen uptake", "setting": "HepG2/C3A cells [2]; 50 μM", "result": 80, "unit": "%"},
      {"measurement": "oxygen uptake, % of normal respiration", "setting": "HepG2/C3A cells [2]; 50 μM, 12 hours exposure", "result": 27, "unit": "%"},
      {"measurement": "oxygen uptake, % of normal respiration", "setting": "HepG2/C3A cells [2]; 200 μM, 12 hours exposure", "result": 15, "unit": "%"},
      {"measurement": "time to onset of mitochondrial damage", "setting": "HepG2/C3A cells [2]; 0.2 mM", "result": "≤ 6", "unit": "min"},
      {"measurement": "time within which the majority of the effect on oxygen uptake occurred", "setting": "HepG2/C3A cells [2]; 1, 50, 200 μM", "result": "≤ 60", "unit": "min"},
      {"measurement": "time to onset of mitochondrial damage, in words", "setting": "HepG2/C3A cells [2]; dose-dependent", "result": "in minutes rather than hours"},
      {"measurement": "exposure time after which the metabolic shift from oxidative phosphorylation to glycolysis occurred", "setting": "HepG2/C3A cells [3]; 50 μM", "result": 3, "unit": "h"},
      {"measurement": "total glucose uptake rate", "setting": "HepG2/C3A cells [3]", "result": 1.0, "unit": "nmol/min/10^6"},
      {"measurement": "lactate over glucose ratio", "setting": "HepG2/C3A cells [3]; 50 μM, 6 hours after exposure", "result": 6.1},
      {"measurement": "additional drop in glucose uptake", "setting": "HepG2/C3A cells [3]; [6]", "result": 65, "unit": "%"},
      {"measurement": "change in lactate production", "setting": "HepG2/C3A cells [3]; [6]", "result": "no change"},
      {"measurement": "lactate over glucose ratio", "setting": "HepG2/C3A cells [3]; 50 μM, within 3 hours after exposure", "result": 2.6},
      {"measurement": "drop in glucose uptake", "setting": "HepG2/C3A cells [3]; [7]", "result": 59, "unit": "%"},
      {"measurement": "drop in lactate production", "setting": "HepG2/C3A cells [3]; [7]", "result": 35, "unit": "%"},
      {"measurement": "lactate over glucose ratio", "setting": "HepG2/C3A cells [3]; gradual switch to compensatory mechanisms", "result": "above 2"},
      {"measurement": "increase in glutamine oxidation rate (glutaminolysis)", "setting": "HepG2/C3A cells [4]", "result": "382±115", "unit": "%"},
      {"measurement": "increase in glutaminolysis", "setting": "HepG2/C3A cells [4]", "result": "4±1", "unit": "folds"},
      {"measurement": "increase in mitochondrial membrane potential (MMP)", "setting": "HepG2/C3A cells [5]; within 3 hours of exposure", "result": "40±6", "unit": "%"},
      {"measurement": "effect on mitochondrial membrane potential (MMP), in words", "setting": "HepG2/C3A cells [5]; rotenone after 3 hours, troglitazone along 6 hours", "result": "significant increase"}
    ]},
    {"smiles": "Cc1c(C)c2c(c(C)c1O)CCC(C)(COc1ccc(CC3SC(=O)NC3=O)cc1)O2", "note": "(stereo not shown) [troglitazone]", "values": [
      {"measurement": "CC50 at 24 h", "setting": "[1]", "result": 285, "unit": "µM"},
      {"measurement": "reduction of oxygen uptake", "setting": "HepG2/C3A cells [2]; 50 μM", "result": 10, "unit": "%"},
      {"measurement": "oxygen uptake, % of normal respiration", "setting": "HepG2/C3A cells [2]; 350 μM, 24 hours exposure", "result": 32, "unit": "%"},
      {"measurement": "oxygen uptake, % of normal respiration", "setting": "HepG2/C3A cells [2]; 500 μM, 24 hours exposure", "result": 15, "unit": "%"},
      {"measurement": "oxygen uptake, % of normal respiration", "setting": "HepG2/C3A cells [2]; 2000 μM, 24 hours exposure", "result": 8, "unit": "%"},
      {"measurement": "total glucose uptake rate", "setting": "HepG2/C3A cells [3]", "result": 2.5, "unit": "nmol/min/10^6"},
      {"measurement": "lactate over glucose ratio", "setting": "HepG2/C3A cells [3]; 50 μM, 6 hours after exposure", "result": 1.8},
      {"measurement": "increase in lactate production", "setting": "HepG2/C3A cells [3]; 50 μM, within 4 to 5 hours", "result": 51, "unit": "%"},
      {"measurement": "increase in glutamine oxidation rate (glutaminolysis)", "setting": "HepG2/C3A cells [4]", "result": "26±30", "unit": "%"},
      {"measurement": "increase in mitochondrial membrane potential (MMP)", "setting": "HepG2/C3A cells [5]; over 6 hours of exposure", "result": "33±7", "unit": "%"}
    ]}
  ]
}
